Results taken from ChEMBL document CHEMBL3727354, “3-(2-amino-ethyl)-5-(3-cyclohexyl-propylidene)-thiazolidine-2,4-dione and its derivatives as multiple signaling pathway inhibitors and for the treatment of cancer” (2011).
Active and inactive are the calls of the source. The calls are words filed in the database; no cut-off is given here.

Experiments:
[1] = Cell cycle arrest in human U937 cells assessed as accumulation at G2/M phase after 24 hrs by propidium iodide staining-based flow cytometric analysis; format: functional; conditions: U-937
[2] = Cell cycle arrest in human U937 cells assessed as decrease in cell level at S phase after 24 hrs by propidium iodide staining-based flow cytometric analysis; format: functional; conditions: U-937
[3] = Inhibition of Raf/MEK/ERK pathway in human U937 cells assessed as inhibition of ERK1/2 phosphorylation at Thr202/Tyr204 at 3 uM preincubated for 1 hr followed by PMA stimulation measured after 30 mins by Western blot analysis; format: cell-based; conditions: U-937
[4] = Inhibition of Raf/MEK/ERK pathway in human U937 cells assessed as reduction of MEK phosphorylation preincubated for 1 hr followed by PMA stimulation measured after 30 mins by Western blot analysis; format: cell-based; conditions: U-937
[5] = Inhibition of Raf/MEK/ERK pathway in human U937 cells assessed as reduction of MEK phosphorylation at 0.3 to 30 uM preincubated for 1 hr followed by PMA stimulation measured after 30 mins by Western blot analysis in presence of MEK inhibitor PD184352; format: cell-based; conditions: U-937
[6] = Inhibition of PI3K/Akt pathway in human U937 cells assessed as reduction of Akt phosphorylation preincubated for 1 hr followed by PMA stimulation measured after 30 mins by Western blot analysis; format: cell-based; conditions: U-937
U-937 = assay: Induction of apoptosis in human U937 cells after 24 hrs by annexin V/propidium iodide staining-based flow cytometric analysis; format: functional, cell-based
M12 = assay: Induction of apoptosis in human M12 cells after 24 hrs by annexin V/propidium iodide staining-based flow cytometric analysis; format: functional, cell-based
DU-145 = assay: Induction of apoptosis in human DU145 cells at 5 to 25 uM after 24 hrs by annexin V/propidium iodide staining-based flow cytometric analysis; format: functional, cell-based
[7] = Cell cycle arrest in human U937 cells assessed as decrease in cell level at G0/G1 phase after 24 hrs by propidium iodide staining-based flow cytometric analysis; format: functional; conditions: U-937
B16-F10 [8] = assay: Antitumor activity against mouse B16F10 cells implanted in B6C3F1 mouse assessed as decrease in lung tumor nodules at 20 mg/kg administered daily via oral gavage started one day before tumor implantation and stopped at day 15 post tumor implantation measured at day 18; format: functional, organism-based
Mus musculus [9] = assay: Toxicity in B6C3F1 mouse assessed as effect on general health at 30 to 80 mg/kg, po administered for 21 days; format: organism-based; conditions: in vivo, 504 h
Mus musculus [10] = assay: Toxicity in B6C3F1 mouse assessed as effect on body weight at 30 to 80 mg/kg, po administered for 21 days; format: organism-based; conditions: in vivo, 504 h
B16-F10 [11] = assay: Antitumor activity against mouse B16F10 cells implanted in B6C3F1 mouse assessed as increase in mouse survival rate at 50 mg/kg, ip administered on day 11 post tumor implantation measured twice a day during compound dosing; format: functional, organism-based
Mus musculus [12] = assay: Toxicity in B6C3F1 mouse assessed as effect on general health at 20 mg/kg, po administered for 21 days; format: organism-based; conditions: in vivo, 504 h
Mus musculus [13] = assay: Toxicity in B6C3F1 mouse assessed as effect on body weight at 20 mg/kg, po administered for 21 days; format: organism-based; conditions: in vivo, 504 h

Row | SMILES | Activity [1] | Activity [2] | inhibition [3] | inhibition [4] | inhibition [5] | inhibition [6] | Activity (U-937) | Activity (M12) | Activity (DU-145) | Activity [7] | Activity (B16-F10 [8]) | Activity (Mus musculus [9]) | Activity (Mus musculus [10]) | Activity (B16-F10 [11]) | Activity (Mus musculus [12]) | Activity (Mus musculus [13])
1 | Cl.NCCN1C(=O)S/C(=C\CCC2CCCCC2)C1=O | Active | Active | Active | Dose-dependent effect | inactive | Dose-dependent effect | Dose-dependent effect | Dose-dependent effect | inactive | Active | Active | Non-toxic | Non-toxic |  |  | 
2 | Cl.NCCN1C(=O)S/C(=C\CCc2ccccc2)C1=O | Active | Active |  |  |  |  |  |  |  | Active |  |  |  | Active | Non-toxic | Non-toxic
